A word on the CC50: it is the concentration at which the toxic effect on the cells reaches its halfway point. A low value points to harm at low concentration. Usually IC50 stands for the concentration at which inhibition is half-maximal.

Data set [1] can be described thus: Acute cytotoxicity against PEK cells after 24 hrs by neutral red staining assay. Format: cell-based, Sus scrofa. The following applies: pig.
The test system of data set [2] is Omsk hemorrhagic fever virus. In words: Antiviral activity against Omsk hemorrhagic fever virus Nikitina infected in PEK cells assessed as inhibition of viral plaque formation after 1 hr by gentian violet staining assay. Type of data set: functional, cell-based.
For data set [3], the system named is Powassan virus. Kind of data set: Antiviral activity against Powassan virus 24 infected in PEK cells assessed as inhibition of viral plaque formation after 1 hr by gentian violet staining assay. The following applies: for IC50: Powassan virus, 24, PEK. Format: functional, cell-based.
Data set [4] has as its system Tick-borne encephalitis virus. Kind of data set: Antiviral activity against Tick-borne encephalitis virus Absettarov infected in PEK cells assessed as inhibition of viral plaque formation after 1 hr by gentian violet staining assay. Type of data set: functional, cell-based.
Data set [5] is described as follows: Chronic cytotoxicity against PEK cells after 7 days by neutral red staining assay. Type of data set: cell-based, Sus scrofa. The following applies: pig.

In data set [1], `COc1ccccc1NC(=O)C1=C(C)NC(SCC(=O)Nc2ccc(Br)cc2)=C(C#N)C1c1ccc(C)o1` (racemic) returned a CC50 at 24 h of 248 µM. For the same molecule, the IC50 is 3.7 µM in data set [2], above 10 µM in data set [3] and above 10 µM in data set [4]. The inhibition entry in data set [2], in data set [3] and in data set [4] was “Dose-dependent effect” each time. The CC50 at 168 h in data set [5] is 34 µM.

For `CC1=C(C(=O)Nc2ccccc2)C(c2cccs2)C(C#N)=C(SCC(=O)c2ccccc2)N1` (racemic), in data set [1], the CC50 at 24 h is above 250 µM. Moreover, the IC50 in data set [2], in data set [3] and in data set [4] was above 10 µM in each case. Moreover, the inhibition entry in data set [2], in data set [3] and in data set [4] was “Dose-dependent effect” in each case. Further, the CC50 at 168 h in data set [5] came to 17 µM.

As to `COc1ccccc1NC(=O)C1=C(C)NC(SCC(=O)Nc2ccc(C)cc2)=C(C#N)C1c1cccs1` (racemic), the CC50 at 24 h in data set [1] was above 250 µM. Moreover, the IC50 in data set [2] is 5.5 µM; in data set [3], above 10 µM; in data set [4], above 10 µM. For the same molecule, the inhibition entry in data set [2], in data set [3] and in data set [4] was “Dose-dependent effect” each time. Moreover, the CC50 at 168 h in data set [5] was found to be 97 µM.

Turning to `CC1=C(C(=O)Nc2ccc(Cl)cc2)C(c2ccccc2)C(C#N)=C(SCC(=O)Nc2cccc(C)c2)N1` (racemic), in data set [1], the CC50 at 24 h was above 250 µM. Also, the figures for the IC50 in data set [2], in data set [3] and in data set [4] were above 10 µM, above 10 µM and 2 µM, respectively. The inhibition result in data set [2], in data set [3] and in data set [4] was “Dose-dependent effect” throughout. In addition, in data set [5], half-maximal cytotoxicity (CC50 at 168 h) was put at 41 µM.

Turning to `CC1=C(C(=O)Nc2ccc(Cl)cc2)C(c2ccccc2)C(C#N)=C(SCC(=O)Nc2ccc(Oc3ccccc3)cc2)N1` (racemic), the CC50 at 24 h in data set [1] was above 250 µM. Moreover, the IC50 in data set [2] was above 10 µM; in data set [3], above 10 µM; in data set [4], 2.8 µM. Further, the inhibition entry in data set [2], in data set [3] and in data set [4] was “Dose-dependent effect” in each case. In data set [5], this molecule came in with a CC50 at 168 h of 38 µM.

In data set [1], `CC1=C(C(=O)Nc2ccc(Cl)cc2)C(c2ccccc2)C(C#N)=C(SCC(=O)Nc2ccc3ccccc3c2)N1` (racemic) yielded a CC50 at 24 h of 111 µM. Further, the IC50 in data set [2], in data set [3] and in data set [4] was above 10 µM in each case. The inhibition entry in data set [2], in data set [3] and in data set [4] was “Dose-dependent effect” throughout. In data set [5], this molecule showed a CC50 at 168 h of 20 µM.

As for `COc1ccc(NC(=O)CSC2=C(C#N)C(c3ccccc3F)C(C(=O)Nc3ccccc3C)=C(C)N2)cc1` (racemic), the cytotoxic concentration (CC50) at 24 h in data set [1] was above 250 µM. Further, the IC50 is 7.2 µM in data set [2], above 10 µM in data set [3] and above 10 µM in data set [4]. For the same molecule, the inhibition entry in data set [2], in data set [3] and in data set [4] was “Dose-dependent effect” each time. In data set [5], this molecule yielded a CC50 at 168 h of 89 µM.

In data set [1], `CCc1ccc(NC(=O)CSC2=C(C#N)C(c3ccc(O)c(OC)c3)C(C(=O)Nc3ccccc3)=C(C)N2)cc1` (racemic) displayed a CC50 at 24 h of 114 µM. In addition, the IC50 in data set [2] is 1.8 µM; in data set [3], above 10 µM; in data set [4] it was above 10 µM. The inhibition result in data set [2], in data set [3] and in data set [4] was “Dose-dependent effect” each time. This molecule also returned a CC50 at 168 h in data set [5] of 31 µM.

As for `COc1ccc(N2CSC3=C(C#N)C(c4ccc(OCc5ccc(Cl)cc5)cc4)CC(=O)N3C2)c(OC)c1` (racemic), the CC50 at 24 h in data set [1] worked out at 109 µM. Besides, the IC50 in data set [2] is above 10 µM; in data set [3], 1.3 µM; in data set [4], 0.07 µM. Further, the inhibition entry in data set [2], in data set [3] and in data set [4] was “Dose-dependent effect” throughout. In addition, in data set [5], half-maximal cytotoxicity (CC50 at 168 h) was put at 39 µM.

Consider `CCOc1ccccc1N1CSC2=C(C#N)C(c3cccc(OCc4ccccc4)c3)CC(=O)N2C1` (racemic), for which the CC50 at 24 h in data set [1] is above 250 µM. Further, the results for the IC50 in data set [2], in data set [3] and in data set [4] were above 10 µM, 2.2 µM and 2.6 µM, respectively. Besides, the inhibition result in data set [2], in data set [3] and in data set [4] was “Dose-dependent effect” throughout. In data set [5], this molecule came in with a CC50 at 168 h of 116 µM.

As for `CCc1ccc(N2CSC3=C(C#N)C(c4cccc(OCc5ccccc5)c4)CC(=O)N3C2)cc1` (racemic), in data set [1], the CC50 at 24 h is above 250 µM. Moreover, the values for the IC50 in data set [2], in data set [3] and in data set [4] were above 11.9 µM, above 10 µM and above 10 µM, respectively. The inhibition result in data set [2], in data set [3] and in data set [4] was “Dose-dependent effect” throughout. In data set [5], this molecule had a CC50 at 168 h of 236 µM.

`CCCCc1ccc(N2CSC3=C(C#N)C(c4ccc(OCc5ccccc5)cc4)CC(=O)N3C2)cc1` (racemic) gave a CC50 at 24 h in data set [1] above 250 µM. Also, the IC50 in data set [2] is above 10 µM; in data set [3], above 10 µM; in data set [4], 1.9 µM. Besides, the inhibition entry in data set [2], in data set [3] and in data set [4] was “Dose-dependent effect” throughout. Moreover, the CC50 at 168 h in data set [5] was found to be 35 µM.

For `COc1ccc(N2CSC3=C(C#N)C(c4ccc(OCc5ccccc5)c(OC)c4)CC(=O)N3C2)cc1` (racemic), the CC50 at 24 h in data set [1] is above 250 µM. Also, the figures for the IC50 in data set [2], in data set [3] and in data set [4] were above 10 µM, above 10 µM and 0.09 µM, respectively. Moreover, the inhibition result in data set [2], in data set [3] and in data set [4] was “Dose-dependent effect” in each case. For the same molecule, in data set [5], the CC50 at 168 h came to 53 µM.

`CCc1ccc(NC(=O)CSC2=C(C#N)C(c3ccco3)C(C(=O)Nc3ccc(Cl)cc3)=C(C)N2)cc1` (racemic) yielded a CC50 at 24 h in data set [1] of 26 µM. Also, the IC50 in data set [2], in data set [3] and in data set [4] was above 10 µM each time. For the same molecule, the inhibition result in data set [2], in data set [3] and in data set [4] was “Dose-dependent effect” in each case. This molecule yielded a CC50 at 168 h in data set [5] of 27 µM.

For `CCc1ccc(NC(=O)CSC2=C(C#N)C(c3ccco3)C(C(=O)Nc3ccc(CC)cc3)=C(C)N2)cc1` (racemic), the CC50 at 24 h in data set [1] was 57 µM. Also, the IC50 in data set [2], in data set [3] and in data set [4] was above 10 µM each time. For the same molecule, the inhibition result in data set [2], in data set [3] and in data set [4] was “Dose-dependent effect” throughout. Moreover, the CC50 at 168 h in data set [5] was found to be 33 µM.

Take `CC1=C(C(=O)Nc2ccccc2C)C(c2ccco2)C(C#N)=C(SCC(=O)Nc2ccc3ccccc3c2)N1` (racemic): the CC50 at 24 h in data set [1] was above 250 µM. Further, the IC50 is 5.3 µM in data set [2], above 10 µM in data set [3] and above 10 µM in data set [4]. The inhibition result in data set [2], in data set [3] and in data set [4] was “Dose-dependent effect” throughout. This molecule gave a CC50 at 168 h in data set [5] above 250 µM.

The molecule `CC1=C(C(=O)Nc2ccccc2)C(c2ccco2)C(C#N)=C(SCC(=O)Nc2ccc(C)c(C)c2)N1` (racemic) displayed a CC50 at 24 h in data set [1] above 250 µM. Further, the IC50 in data set [2] is 3.2 µM; in data set [3], above 10 µM; in data set [4] it was above 10 µM. In addition, the inhibition entry in data set [2], in data set [3] and in data set [4] was “Dose-dependent effect” in each case. The CC50 at 168 h in data set [5] came to 19 µM.

On to `CC1=C(C(=O)Nc2c(C)cccc2C)C(c2ccco2)C(C#N)=C(SCC(=O)Nc2nc3ccccc3s2)N1` (racemic), for which the half-maximal cytotoxic concentration (CC50) at 24 h in data set [1] was above 250 µM. Moreover, the IC50 was 7.1 µM in data set [2], above 10 µM in data set [3] and above 10 µM in data set [4]. Also, the inhibition entry in data set [2], in data set [3] and in data set [4] was “Dose-dependent effect” throughout. This molecule gave a CC50 at 168 h in data set [5] of 7 µM.

`CC1=C(C(=O)Nc2nc3ccccc3s2)C(c2ccco2)C(C#N)=C(SCC(=O)Nc2nc3ccccc3s2)N1` (racemic) gave a CC50 at 24 h in data set [1] above 250 µM. For the same molecule, the IC50 in data set [2] was 2.5 µM; in data set [3], above 10 µM; in data set [4], above 10 µM. Also, the inhibition result in data set [2], in data set [3] and in data set [4] was “Dose-dependent effect” each time. Also, in data set [5], it took 52 µM to reach half-maximal cytotoxicity (CC50 at 168 h).

For the molecule `CC1=C(C(=O)Nc2nc3ccccc3s2)C(c2ccco2)C(C#N)=C(SCC(=O)Nc2ccc(C(C)C)cc2)N1` (racemic), in data set [1], the CC50 at 24 h is above 250 µM. For the same molecule, the results for the IC50 in data set [2], in data set [3] and in data set [4] were 2.5 µM, above 10 µM and above 10 µM, respectively. The inhibition result in data set [2], in data set [3] and in data set [4] was “Dose-dependent effect” throughout. Further, it took 29 µM to reach half-maximal cytotoxicity in data set [5] (CC50 at 168 h).

The values above are taken from ChEMBL document CHEMBL2429750, “Inhibitors of tick-borne flavivirus reproduction from structure-based virtual screening” (ACS Med Chem Lett, 2013).
